Results: PMC11513893, “Discovery of Oral Degraders of the ROS1 Fusion Protein with Potent Activity against Secondary Resistance Mutations” (Journal of Medicinal Chemistry, 2024)

Columns and labels:
[1] = tested on: Ba/F3 CD74-ROS1 non mutant; assay: Antiproliferation assay (Alamar Blue, 72 h); assay type: cell-based, mouse; conditions: Ba/F3 cells, cell growth inhibition
Text: (§1) To assess targeted degradation of ROS1 fusion proteins, we first established a mouse pro-B cell line Ba/F3 as a model expressing the CD74-ROS1 oncogene or CD74-ROS1 with clinically observed secondary/tertiary mutations. The Ba/F3 cell line is dependent on interleukin-3 for survival and proliferation. Upon transduction of oncogenic ROS1, Ba/F3 cells become independent of interleukin-3 but dependent on the transduced driver gene.
(§2) Ba/F3 immortalized murine bone marrow–derived pro-B cells were obtained from Creative Biogene (Shirley, NY) and cultured in RPMI supplemented with 10% FBS and IL3 (0.5 ng/mL). Ba/F3 cells expressing ROS1 variants were maintained in RPMI supplemented with 10% FBS and puromycin (0.7 mg/mL). […] Each compound was dissolved in DMSO and serially diluted in RPMI for cell culture experiments.
(§3) To assess the 72 h effect of drug treatment on cell proliferation, 2000 to 3000 cells were plated in replicates of three in 96-well plates. The plates were placed in an incubator at 37 °C, 5% CO2 for 72 h. Following drug treatments, the cells were incubated with the Alamar Blue Assay reagent (BioRad), 5 μL each well for 4 h at 37 °C and 5% CO2. Luminescence was measured on a multiplate reader and analyzed. […] IC50 values were determined using a nonlinear regression model with a sigmoidal dose response in GraphPad. The data were collected based on triplicate experiments, and presented as mean ± SD.
(§4) The resulting virus was used to infect Ba/F3 cells. After retroviral infection, Ba/F3 cells were selected by incubation with puromycin (0.7 mg/mL) for 2 weeks. For Ba/F3 cells infected by the CD74–ROS1 variants, IL3 was withdrawn from the culture medium at least 2 weeks before the experiments.

Ba/F3 ROS1-G2032R = assay: Antiproliferation assay; assay type: cell-based, mouse; conditions: Ba/F3 cells, cell growth inhibition, 72 h
Text: as §1, §2, §3, §4

ROS1 = ROS1 degradation in Ba/F3 cells (WES immunoblotting); assay type: cell-based; conditions: for DC50: concentration needed to reduce ROS1 protein by 50%, Ba/F3 cells; for Dmax (%) (ROS1): maximal degradation of ROS1 in Ba/F3 cells
Protocol: Protein levels were analyzed using a WES instrument according to the WES User Guide from ProteinSimple in duplicate experiments. The samples were mixed with the fluorescent 5 master mix (ProteinSimple) and then heated at 95 °C for 5 min. Boiled samples, biotinylated protein ladder, antibody diluent, Streptavidin-HRP, primary antibodies, ProteinSimple horseradish peroxidase conjugated antirabbit or antimouse secondary antibodies, luminol-peroxide, and wash buffer were loaded into the WES plate (Wes 12–230 kDa Prefilled Plates with Split Buffer, ProteinSimple). The plates and capillary cartridges were loaded into the WES instrument, and protein separation, antibody incubation, and imaging were performed according to manufacturer’s instructions. Compass software (ProteinSimple) was used to acquire the data and to generate the virtual blot image reconstruction and chemiluminescence signal intensity electropherograms. […] Protein levels are expressed as the AUC of the peak chemiluminescence intensity. Antibodies against phospho-ROS1(Tyr2274/2334) (E8F5J), ROS1 (D4D6(R)) were obtained from Cell Signaling Technology.

Row | Compound | IC50 [1] [nM] | IC50 (Ba/F3 ROS1-G2032R) [nM] | DC50 (ROS1) [nM] | Dmax (%) (ROS1) (ROS1) | IC50 ([1]; Mus musculus, BaF3, 72 h) [nM] | IC50 (Ba/F3 ROS1-G2032R; Mus musculus, BaF3) [nM]
1 | 3-(5-(4-((4-(4-((5-Chloro-4-((2-(dimethylphosphoryl)phenyl)amino)pyrimidin-2-yl)amino)-3-methoxyphenyl)piperazin-1-yl)methyl)piperidin-1-yl)-1-oxoisoindolin-2-yl)piperidine-2,6-dione [9n] | 9.5 ± 0.5 | 195 ± 124 | 11 | 93 |  | 
2 | 4-(3-(4-(1-(4-((5-Chloro-4-((2-(dimethylphosphoryl)phenyl)amino)pyrimidin-2-yl)amino)-3-methoxyphenyl)piperidin-4-yl)piperazin-1-yl)azetidin-1-yl)-2-(2,6-dioxopiperidin-3-yl)isoindoline-1,3-dione [9j] | 113 ± 16 | 1040 ± 96 | 108 | 77 |  | 
3 | C[C@@H](Oc1cc(-c2cnn(C3CCN(c4cccc5c4C(=O)N(C4CCC(=O)NC4=O)C5=O)CC3)c2)cnc1N)c1c(Cl)ccc(F)c1Cl (stereo partly drawn) [7a, 4-(4-(4-(6-Amino-5-((R)-1-(2,6-dichloro-3-fluorophenyl)ethoxy)pyridin-3-yl)-1H-pyrazol-1-yl)piperidin-1-yl)-2-(2,6-dioxopiperidin-3-yl)isoindoline-1,3-dione] |  |  | 310 | 67 | 264 ± 44 | > 5000
4 | C[C@@H](Oc1cc(-c2cnn(C3CCN(CC4CN(c5cccc6c5C(=O)N(C5CCC(=O)NC5=O)C6=O)C4)CC3)c2)cnc1N)c1c(Cl)ccc(F)c1Cl (stereo partly drawn) [7b, 4-(3-((4-(4-(6-Amino-5-((R)-1-(2,6-dichloro-3-fluorophenyl)ethoxy)pyridin-3-yl)-1H-pyrazol-1-yl)piperidin-1-yl)methyl)azetidin-1-yl)-2-(2,6-dioxopiperidin-3-yl)isoindoline-1,3-dione] |  |  | > 1000 | <5 | 2700 ± 254 | > 5000
5 | C[C@@H](Oc1cc(-c2cnn(C3CCN(CC4CCN(c5cccc6c5C(=O)N(C5CCC(=O)NC5=O)C6=O)CC4)CC3)c2)cnc1N)c1c(Cl)ccc(F)c1Cl (stereo partly drawn) [7c, 4-(4-((4-(4-(6-Amino-5-((R)-1-(2,6-dichloro-3-fluorophenyl)ethoxy)pyridin-3-yl)-1H-pyrazol-1-yl)piperidin-1-yl)methyl)piperidin-1-yl)-2-(2,6-dioxopiperidin-3-yl)isoindoline-1,3-dione] |  |  | 368 | 76 | 350 ± 106 | > 5000
6 | C[C@@H](Oc1cc(-c2cnn(C3CCN(CCC4CCN(c5cccc6c5C(=O)N(C5CCC(=O)NC5=O)C6=O)CC4)CC3)c2)cnc1N)c1c(Cl)ccc(F)c1Cl (stereo partly drawn) [7d, 4-(4-(2-(4-(4-(6-Amino-5-((R)-1-(2,6-dichloro-3-fluorophenyl)ethoxy)pyridin-3-yl)-1H-pyrazol-1-yl)piperidin-1-yl)ethyl)piperidin-1-yl)-2-(2,6-dioxopiperidin-3-yl)isoindoline-1,3-dione] |  |  | 145 | 78 | 106 ± 29 | > 5000
7 | C[C@@H](Oc1cc(-c2cnn(C3CCN(c4ccc5c(c4)C(=O)N(C4CCC(=O)NC4=O)C5=O)CC3)c2)cnc1N)c1c(Cl)ccc(F)c1Cl (stereo partly drawn) [7e, 5-(4-(4-(6-Amino-5-((R)-1-(2,6-dichloro-3-fluorophenyl)ethoxy)pyridin-3-yl)-1H-pyrazol-1-yl)piperidin-1-yl)-2-(2,6-dioxopiperidin-3-yl)isoindoline-1,3-dione] |  |  | 203 | 53 | 155 ± 21 | 2910 ± 742
8 | C[C@@H](Oc1cc(-c2cnn(C3CCN(CC4CN(c5ccc6c(c5)C(=O)N(C5CCC(=O)NC5=O)C6=O)C4)CC3)c2)cnc1N)c1c(Cl)ccc(F)c1Cl (stereo partly drawn) [7f, 5-(3-((4-(4-(6-Amino-5-((R)-1-(2,6-dichloro-3-fluorophenyl)ethoxy)pyridin-3-yl)-1H-pyrazol-1-yl)piperidin-1-yl)methyl)azetidin-1-yl)-2-(2,6-dioxopiperidin-3-yl)isoindoline-1,3-dione] |  |  | 622 | 24 | 569 ± 73 | > 5000
9 | C[C@@H](Oc1cc(-c2cnn(C3CCN(CC4CCN(c5ccc6c(c5)C(=O)N(C5CCC(=O)NC5=O)C6=O)CC4)CC3)c2)cnc1N)c1c(Cl)ccc(F)c1Cl (stereo partly drawn) [7g, 5-(4-((4-(4-(6-Amino-5-((R)-1-(2,6-dichloro-3-fluorophenyl)ethoxy)pyridin-3-yl)-1H-pyrazol-1-yl)piperidin-1-yl)methyl)piperidin-1-yl)-2-(2,6-dioxopiperidin-3-yl)isoindoline-1,3-dione] |  |  | 21 | 85 | 15 ± 4 | > 5000
10 | C[C@@H](Oc1cc(-c2cnn(C3CCN(CCC4CCN(c5ccc6c(c5)C(=O)N(C5CCC(=O)NC5=O)C6=O)CC4)CC3)c2)cnc1N)c1c(Cl)ccc(F)c1Cl (stereo partly drawn) [7h, 5-(4-(2-(4-(4-(6-Amino-5-((R)-1-(2,6-dichloro-3-fluorophenyl)ethoxy)pyridin-3-yl)-1H-pyrazol-1-yl)piperidin-1-yl)ethyl)piperidin-1-yl)-2-(2,6-dioxopiperidin-3-yl)isoindoline-1,3-dione] |  |  | > 1000 | 11 | 842 ± 172 | > 5000
11 | C[C@@H](Oc1cc(-c2cnn(C3CCN(CC4CCN(CC5CCN(c6ccc7c(c6)C(=O)N(C6CCC(=O)NC6=O)C7=O)CC5)CC4)CC3)c2)cnc1N)c1c(Cl)ccc(F)c1Cl (stereo partly drawn) [7i, 5-(4-((4-((4-(4-(6-Amino-5-((R)-1-(2,6-dichloro-3-fluorophenyl)ethoxy)pyridin-3-yl)-1H-pyrazol-1-yl)piperidin-1-yl)methyl)piperidin-1-yl)methyl)piperidin-1-yl)-2-(2,6-dioxopiperidin-3-yl)isoindoline-1,3-dione] |  |  | 338 | 32 | 284 ± 51 | > 5000
12 | Cc1cc(Nc2ncc(Cl)c(Nc3ccccc3S(=O)(=O)C(C)C)n2)c(OC(C)C)cc1C1CCN(CCNc2cccc3c2C(=O)N(C2CCC(=O)NC2=O)C3=O)CC1 (centres unmarked) [8a, 4-((2-(4-(4-((5-Chloro-4-((2-(isopropylsulfonyl)phenyl)amino)pyrimidin-2-yl)amino)-5-isopropoxy-2-methylphenyl)piperidin-1-yl)ethyl)amino)-2-(2,6-dioxopiperidin-3-yl)isoindoline-1,3-dione] |  |  | 225 | 58 | 176 ± 31 | > 10000
13 | Cc1cc(Nc2ncc(Cl)c(Nc3ccccc3S(=O)(=O)C(C)C)n2)c(OC(C)C)cc1C1CCN(CCCNc2cccc3c2C(=O)N(C2CCC(=O)NC2=O)C3=O)CC1 (centres unmarked) [8b, 4-((3-(4-(4-((5-Chloro-4-((2-(isopropylsulfonyl)phenyl)amino)pyrimidin-2-yl)amino)-5-isopropoxy-2-methylphenyl)piperidin-1-yl)propyl)amino)-2-(2,6-dioxopiperidin-3-yl)isoindoline-1,3-dione] |  |  | 140 | 71 | 122 ± 17 | > 10000
14 | Cc1cc(Nc2ncc(Cl)c(Nc3ccccc3S(=O)(=O)C(C)C)n2)c(OC(C)C)cc1C1CCN(C2CCN(c3cccc4c3C(=O)N(C3CCC(=O)NC3=O)C4=O)CC2)CC1 (centres unmarked) [8c, 4-(4-(4-((5-Chloro-4-((2-(isopropylsulfonyl)phenyl)amino)pyrimidin-2-yl)amino)-5-isopropoxy-2-methylphenyl)-[1,4′-bipiperidin]-1′-yl)-2-(2,6-dioxopiperidin-3-yl)isoindoline-1,3-dione] |  |  | 143 | 82 | 107 ± 16 | 1260 ± 93
15 | Cc1cc(Nc2ncc(Cl)c(Nc3ccccc3S(=O)(=O)C(C)C)n2)c(OC(C)C)cc1C1CCN(C2CN(C3CCN(c4ccc5c(c4)C(=O)N(C4CCC(=O)NC4=O)C5=O)CC3)C2)CC1 (centres unmarked) [8p, 5-(4-(3-(4-(4-((5-Chloro-4-((2-(isopropylsulfonyl)phenyl)amino)pyrimidin-2-yl)amino)-5-isopropoxy-2-methylphenyl)piperidin-1-yl)azetidin-1-yl)piperidin-1-yl)-2-(2,6-dioxopiperidin-3-yl)isoindoline-1,3-dione] |  |  | 27 | 93 | 40 ± 6 | 
